Results: PubChem BioAssay (NCI)
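Five compound concentrations were applied to cells in 96-well plates for 48 hours; endpoints were derived by simple linear interpolation of the resulting dose-response curve. At the GI50, growth is halved. TGI: total growth inhibition.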

Assays:
Assay in all cases: inhibition of tumour cell growth, NCI panel, 48 h
[1] = system: KM12 colon
[2] = system: SF-268 CNS
[3] = system: MCF7 breast
[4] = system: HL-60(TB) leukemia
[5] = system: OVCAR-4 ovarian
[6] = system: OVCAR-5 ovarian
[7] = system: HS 578T breast
[8] = system: PC-3 prostate
[9] = system: K-562 leukemia
[10] = system: IGROV1 ovarian

| SMILES | TGI [1] | TGI [2] | TGI [3] | TGI [4] | TGI [5] | TGI [6] | TGI [7] | TGI [8] | TGI [9] | TGI [10] | GI50 [1] | GI50 [2] | GI50 [3] | GI50 [4] | GI50 [5] | GI50 [6] | GI50 [7] | GI50 [8] | GI50 [9] | GI50 [10] |
| --- | --- | --- | --- | --- | --- | --- | --- | --- | --- | --- | --- | --- | --- | --- | --- | --- | --- | --- | --- | --- |
| C[C@]12CC[C@H](O)CC1=CC[C@@H]1C2CC[C@]2(C)c3nn(-c4ccc(F)cc4)nc3CC12 (some centres undefined) | > 100 µM | > 100 µM | > 100 µM | > 100 µM | > 100 µM | > 100 µM | > 100 µM | > 100 µM | > 100 µM | > 100 µM |  |  |  |  |  |  |  |  |  |  |
| COc1c(C)c2c(c(O)c1C/C=C(\C)CCC(=O)OCCN1CCOCC1)C(=O)OC2 | > 100 µM | > 100 µM | > 100 µM | > 100 µM | > 76.7 µM | > 100 µM | > 100 µM | > 100 µM | > 100 µM | > 100 µM | 0.317 µM | 0.532 µM | 0.196 µM | 1.12 µM | 0.576 µM | 2.09 µM | 7 µM | 0.562 µM | 0.151 µM | 0.27 µM |
| COc1ccccc1C1=C2C(=O)N(C)C(c3ccccc3OC)=C2C(=O)N1C | > 100 µM | > 100 µM | > 100 µM | > 100 µM | > 100 µM | > 100 µM | 97.1 µM | > 100 µM | > 100 µM | > 100 µM |  |  |  |  |  |  |  |  |  |  |
| COC(=O)COc1ccc(/C=C2\N=C(c3ccccc3)N(c3cc(C(F)(F)F)ccc3Cl)C2=O)cc1 | > 100 µM | > 100 µM | > 100 µM | 63.4 µM | > 100 µM | > 100 µM | > 100 µM | > 100 µM | > 100 µM | > 100 µM | 42.3 µM | 48.4 µM | 59.8 µM | 27.3 µM | 54.8 µM | > 100 µM | 83.7 µM | 44.8 µM | 47.3 µM | 29.1 µM |
| CN(C)NC1=NS(=O)(=O)c2cc3c(cc2S1)N(N(C)C)C(=O)c1cc2c(cc1N(N(C)C)C3=O)SC(NN(C)C)=NS2(=O)=O | > 10 µM | > 10 µM | > 10 µM | > 10 µM | > 10 µM | > 10 µM | > 10 µM | > 10 µM | > 10 µM | > 10 µM |  |  |  |  |  |  |  |  |  |  |
| O=C(Nc1ccc(-n2cc(-c3ccncc3)c(-c3ccc(Cl)c(O)c3)n2)cc1)Nc1cc(C(F)(F)F)cc(C(F)(F)F)c1 | 3.15 µM | 3.27 µM | 8.15 µM | 8.84 µM | 3.98 µM | 7.21 µM | 6.59 µM | 6.1 µM |  | 4.45 µM | 1.6 µM | 1.62 µM | 2.58 µM | 2.94 µM | 0.404 µM | 2.26 µM | 2.04 µM | 2.05 µM |  | 2.04 µM |
| C=C1C[C@@H]2C/C=C/C(=O)C/C(C)=C\C=C\C(=O)O[C@H](C=O)C/C(C)=C/[C@H](C1)O2 | 12.2 µM | 19.6 µM | 13.6 µM | 0.781 µM | 70 µM | 13.5 µM | > 65.1 µM | 21.4 µM | > 40.2 µM | 21.7 µM | 1.17 µM | 1.39 µM | 0.277 µM | 0.243 µM | 4.65 µM | 2.31 µM | 4.23 µM | 0.354 µM | 0.16 µM | 1.16 µM |
| CN(C)CCCN=C(N)N | > 100 µM | > 100 µM | > 100 µM | > 100 µM | > 100 µM | > 100 µM | > 100 µM | > 100 µM | > 100 µM | > 100 µM |  |  |  |  |  |  |  |  |  |  |
| COc1ccc2c(c1)nc(N)c1c3cc(OC)c(OC)cc3cn21 | 12.7 µM | 17.5 µM | 13.7 µM | 0.622 µM | 17.8 µM | 18.8 µM | 32.3 µM | 16 µM | 11.7 µM | 20.1 µM | 0.014 µM |  | 0.148 µM | 0.196 µM | 0.238 µM | 0.0749 µM | 0.159 µM |  | < 0.01 µM | 0.249 µM |
| O=C(NC1CC1)c1ccc(-c2nc3ccc4[nH]ncc4c3c3c2CCCC3)cc1 | 9.65 µM | 14 µM | 9.57 µM | 6.99 µM | > 50 µM | 47.6 µM | 3.37 µM | 29.7 µM | > 50 µM | > 50 µM | 1.51 µM | 1.87 µM | 1.44 µM | 1.59 µM | 4.62 µM | 7.3 µM | 1.06 µM | 2.29 µM | 1.95 µM | 0.989 µM |
| COc1ccc2nc(-c3ccccc3)cc(Nc3ccc(C(C)=O)cc3)c2c1 | 5.2 µM | 31 µM | 13.9 µM |  | > 100 µM | 19.1 µM | 27.1 µM | 4.63 µM | 11.7 µM | > 100 µM | 1.88 µM | 7.51 µM | 2.47 µM |  | 12.1 µM | 6.3 µM | 8.2 µM | 1.16 µM | 1.14 µM | 15.8 µM |
| N#CCN1CCCCCc2ccccc21 | > 100 µM | > 100 µM | > 100 µM | > 100 µM | > 100 µM | > 100 µM | > 100 µM |  | > 100 µM | > 100 µM |  |  |  |  |  |  |  |  |  |  |
| NCCCC(=O)Nc1ccncc1 | > 100 µM | > 100 µM | > 100 µM | > 100 µM | > 100 µM | > 100 µM | > 100 µM | > 100 µM | > 100 µM | > 100 µM | > 100 µM | > 100 µM | > 100 µM | > 100 µM | > 100 µM | > 100 µM | > 100 µM | > 100 µM | > 100 µM | > 100 µM |
| N#CC1=C(N)N=C(N2CCCCC2)C(C#N)C12Nc1ccccc1S2 (centres undefined) | > 100 µM | 67.2 µM | > 100 µM | > 100 µM | > 100 µM |  |  | > 100 µM | > 100 µM | > 100 µM | 25.6 µM | 18.9 µM | 44.9 µM | 85.4 µM | 37.9 µM |  |  | 50.5 µM | > 100 µM | 58.9 µM |
